Measured values as given in patent US20090047214A1, “Novel methylation marker” (OncoMethylome Sciences S.A., priority 2006, published 2009).

Assays:
[1] = tested on: WRN RNA transcript and protein; assay: Reactivation of WRN expression in WRN-hypermethylated cancer cell lines (RT-PCR, western blot, immunofluorescence); assay type: cell-based, human; conditions: HCT-116, COLO-205, MDA-MB-231 and U937 cell lines; 1 μM for 3 days
Experimental: (§1) The eleven human cancer cell lines examined in this study were obtained from the American Type Culture Collection (ATCC) (Rockland, Md., USA) and the German Collection of Microorganisms and Cell Cultures (DSMZ, Braunschweig, Germany). The cell lines represented three different types of malignancies, colon (HCT-116, COLO-205), breast (MCF-7, MDA-MB-468, MDAMB-231) and leukaemia (HL-60, KG1a, U937, REH, Jurkat, K562). Cell lines were maintained in appropriate media and treated with 1 μM 5-aza-2′-deoxycytidine (Sigma) for 3 days to achieve demethylation, as previously described (Herman et al., 1998; Ropero et al., 2004). WS−/− cells (AG11395) were obtained from the Coriel Cell Repositories (Camden, N.J., USA). The collection of primary tumor samples analyzed has been described elsewhere (Esteller et al., 2001; Ropero et al., 2004).
RNA was isolated using TRIzol (Life Technologies, Gaithersburg, Md., USA). 2 μg of RNA was reverse-transcribed using SuperScript II reverse transcriptase (Gibco/BRL) and amplified using specific primers for WRN (forward: 5′-GCATGTGTTCGGAAGAGTGTTT-3-(SEQ ID. NO: 6), reverse: 5′-TGACATGGAAGAAACGTGGAA-3 (SEQ ID. NO: 7)) and for GAPDH. […] Cell lysates for protein analysis were prepared and analyzed by western blotting using the WRN antibody ab200 (Rabbit Polyclonal, Abcam). […]

[2] = tested on: WRN-associated exonuclease activity in U937 cells; assay: Exonuclease activity assay in WRN-immunoprecipitated cell extracts; assay type: cell-based, human; conditions: 1 μM for 3 days
Experimental: as §1
The exonuclease enzymatic activity was measured as previously described (Brosh et al., 2001). […] The digestion products of these reactions were separated on 15% denaturing polyacrylamide gels, visualized using a PhosphorImager (Molecular Dynamics), and quantitated using ImageQuant software (Molecular Dynamics).

[3] = tested on: lymphoblastoid cell line from a WS patient (WS-/-); assay: Apoptosis by flow cytometry; assay type: cell-based, human; conditions: WS patient lymphoblastoid cells, positive control
Experimental: as §1
(§2) The percentage of apoptotic cells was determined by flow cytometry using Vybrant® Apoptosis Assay Kit #4-YO-PRO®-1/propidium iodide (Molecular Probes/Invitrogen). Briefly, cells were washed twice with ice cold PBS and resuspended in PBS containing YO-PRO®-1/propidium iodide. Apoptotic cells were identified by flow cytometry after 20 min of incubation. Cytogenetic assay was performed as previously described (Herranz et al., 2006) analyzing one-hundred metaphases for each experimental condition.

[4] = tested on: WRN-transfected U937 cells; assay: Apoptosis by flow cytometry; assay type: cell-based, human; conditions: U937 transfected with WRN
Experimental: as §2
(§3) The WRN coding sequence corresponding to the cDNA from a BLCL lymphoblastoid-EBV immortalized cell line was amplified by PCR and directly cloned into the pGEM-T Easy Vector (Promega, Winsconsin USA). The WRN insert was subcloned into the pEGFP-N1 expression vector (Invitrogen) and confirmed by sequencing. For transfection experiments we used the pEGFP-N1 vector containing the WRN gene, or the pEGFP-N1 empty vector. Transfection of MDA-MB-231 and U937 cells was performed by electroporating […] in 0.8 ml PBS with 40 μg of the vector at 250 V and 975 μF. After electroporation, cells were washed with PBS and seeded with 10^6 cells/ml in fresh medium containing 20% FBS. Transfected cells were selected by the addition of G418 (600 μg/ml).

[5] = tested on: WRN-transfected MDA-MB-231 cells; assay: Apoptosis by flow cytometry; assay type: cell-based, human; conditions: MDA-MB-231 transfected with WRN
Experimental: as §2, §3

[6] = tested on: WRN-transfected MDA-MB-231 cells; assay: Cytogenetic chromosomal breakage analysis; assay type: cell-based, human; parameters: dose or concentration left out as unconfirmed
Experimental: as §2, §3

[7] = tested on: U937 cells (WRN promoter hypermethylation); assay: Apoptosis by flow cytometry; assay type: cell-based, human; conditions: U937, WRN hypermethylated; increasing concentrations
Experimental: as §2

[8] = tested on: MCF-7 cells (unmethylated WRN promoter); assay: Apoptosis by flow cytometry; assay type: cell-based, human; conditions: MCF-7, WRN unmethylated
Experimental: as §2

[9] = tested on: MDA-MB-231 cells (WRN promoter hypermethylation); assay: Apoptosis by flow cytometry; assay type: cell-based, human; conditions: MDA-MB-231, WRN hypermethylated; increasing concentrations
Experimental: as §2

[10] = tested on: MDA-MB-231 cells (WRN aberrant methylation); assay: Cytogenetic chromosomal breakage analysis; assay type: cell-based, human
Experimental: as §2

[11] = tested on: HL60 cells (unmethylated WRN promoter); assay: Cytogenetic chromosomal breakage analysis; assay type: cell-based, human; conditions: metaphases
Experimental: as §2

[12] = tested on: MCF-7 cells (unmethylated WRN promoter); assay: Cytogenetic chromosomal breakage analysis; assay type: cell-based, human; conditions: MCF-7, WRN unmethylated; metaphases
Experimental: as §2

[13] = tested on: lymphoblastoid cells from a WS patient; assay: Cytogenetic chromosomal breakage analysis; assay type: cell-based, human; conditions: metaphases
Experimental: as §1, §2

[14] = tested on: primary colorectal tumors; assay: Overall survival of colorectal cancer patients treated with irinotecan, by WRN methylation status (Kaplan-Meier); assay type: in vivo, human; conditions: WRN methylated colon tumors (n=45)
Experimental: Contingency tables were analyzed by Fisher's exact test. Overall survival curves were estimated by the Kaplan-Meier method and were compared with the use of the log-rank test. All statistical analyses were performed using the SPSS version 10.1 program (SPSS Inc, Chicago, Ill.).

Nc1ncn([C@H]2C[C@H](O)[C@@H](CO)O2)c(=O)n1 [5-aza-2′-deoxycytidine]
expression of WRN RNA transcript and protein [1]: restored the expression | WRN-associated exonuclease activity [2]: significant increase

CC[C@@]1(O)C(=O)OCc2c1cc1n(c2=O)Cc2cc3ccccc3nc2-1 [camptothecin]
induction of apoptosis [3]: same phenomena | induction of apoptosis [4]: resistant to the apoptosis | induction of apoptosis [5]: resistant to the apoptosis | chromosomal breakage ([6]; MDA-MB-231 transfected with WRN, metaphases): acquired a resistance | induction of apoptosis [7]: optimal inductors of apoptosis | induction of apoptosis [8]: markedly resistant | induction of apoptosis [9]: optimal inductors of apoptosis | chromosomal breakage ([10]; MDA-MB-231, WRN methylated, metaphases): extremely sensitive | chromosomal breakage [11]: minimal chromosomal breakage | chromosomal breakage [12]: minimal chromosomal breakage | chromosomal breakage [13]: extremely sensitive

CCc1c2c(nc3ccc(OC(=O)N4CCC(N5CCCCC5)CC4)cc13)-c1cc3c(c(=O)n1C2)COC(=O)[C@]3(O)CC [irinotecan]
median time to the death of the patient [14]: 39.4 months

CO[C@@]12[C@H](COC(N)=O)C3=C(C(=O)C(C)=C(N)C3=O)N1C[C@@H]1N[C@@H]12 [mitomycin C]
induction of apoptosis [3]: same phenomena | induction of apoptosis [4]: resistant to the apoptosis | induction of apoptosis [5]: resistant to the apoptosis | chromosomal breakage ([6]; MDA-MB-231 transfected with the WRN gene): resistance to the genome damage | induction of apoptosis [7]: optimal inductors of apoptosis | induction of apoptosis [8]: markedly resistant | induction of apoptosis [9]: optimal inductors of apoptosis | chromosomal breakage ([10]; MDA-MB-231 (empty vector), 50 mg/ml): massive breakage
